Legend:
CYP3A4 = assay: CYP induction in cryopreserved human hepatocytes; assay type: in vitro ADME; conditions: for mRNA Mean Fold Change ± SD CYP3A4: 48 h, n = 3 donors, vs DMSO vehicle
[1] = Plasma protein binding by equilibrium dialysis, mouse plasma; assay type: in vitro ADME; conditions: pH 7.4
CYP1A2 [2] = target: T1, CYP1A2 (Homo sapiens, UniProt P05177); assay: Reversible CYP inhibition in pooled human liver microsomes; assay type: in vitro ADME
T1 sequence (P05177 1-516): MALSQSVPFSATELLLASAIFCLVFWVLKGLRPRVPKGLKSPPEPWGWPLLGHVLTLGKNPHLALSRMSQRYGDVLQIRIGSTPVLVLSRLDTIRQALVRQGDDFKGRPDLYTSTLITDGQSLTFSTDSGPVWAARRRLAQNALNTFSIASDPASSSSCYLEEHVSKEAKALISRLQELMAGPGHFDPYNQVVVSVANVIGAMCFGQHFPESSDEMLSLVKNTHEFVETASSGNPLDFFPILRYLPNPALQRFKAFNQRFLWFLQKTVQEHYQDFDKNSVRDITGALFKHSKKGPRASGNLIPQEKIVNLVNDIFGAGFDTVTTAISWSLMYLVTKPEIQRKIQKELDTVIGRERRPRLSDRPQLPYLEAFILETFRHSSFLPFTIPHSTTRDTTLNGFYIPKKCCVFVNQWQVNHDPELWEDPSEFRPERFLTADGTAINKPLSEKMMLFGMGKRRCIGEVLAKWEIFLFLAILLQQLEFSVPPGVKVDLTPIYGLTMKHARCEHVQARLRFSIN

CYP1A2 [3] = assay: CYP induction in cryopreserved human hepatocytes; conditions: for mRNA Mean Fold Change ± SD CYP1A2: 48 h, n = 3 donors, vs DMSO vehicle
MATE1 = target: T2, MATE1 (Homo sapiens, UniProt Q96FL8); assay: Inhibition of transporter-mediated probe uptake in CHO-K1-MATE1 cells; assay type: in vitro ADME
T2 construct: expressed in transfected cells; host or cells: CHO-K1
T2 sequence (Q96FL8 1-570): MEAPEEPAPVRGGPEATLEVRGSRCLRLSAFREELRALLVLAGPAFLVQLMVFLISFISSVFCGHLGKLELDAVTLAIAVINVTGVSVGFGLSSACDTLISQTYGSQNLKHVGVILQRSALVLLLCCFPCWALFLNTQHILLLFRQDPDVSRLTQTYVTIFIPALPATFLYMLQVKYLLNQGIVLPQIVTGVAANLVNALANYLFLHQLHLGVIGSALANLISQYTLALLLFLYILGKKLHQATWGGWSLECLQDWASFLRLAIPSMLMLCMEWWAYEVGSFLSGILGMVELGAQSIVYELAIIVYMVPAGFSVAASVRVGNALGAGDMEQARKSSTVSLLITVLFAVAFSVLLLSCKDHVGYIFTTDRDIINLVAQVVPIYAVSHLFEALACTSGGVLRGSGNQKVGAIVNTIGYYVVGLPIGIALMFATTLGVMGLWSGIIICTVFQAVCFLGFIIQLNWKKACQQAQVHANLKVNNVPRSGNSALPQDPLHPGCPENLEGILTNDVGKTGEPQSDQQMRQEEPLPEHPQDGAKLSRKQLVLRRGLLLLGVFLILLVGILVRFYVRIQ

OCT2 = target: T3, OCT2 (Homo sapiens, UniProt O15244); assay: Islatravir uptake as substrate, CHO-K1 vs CHO-K1-OCT2 cells; assay type: in vitro ADME
T3 construct: expressed in transfected cells; host or cells: CHO-K1
T3 sequence (O15244 1-555): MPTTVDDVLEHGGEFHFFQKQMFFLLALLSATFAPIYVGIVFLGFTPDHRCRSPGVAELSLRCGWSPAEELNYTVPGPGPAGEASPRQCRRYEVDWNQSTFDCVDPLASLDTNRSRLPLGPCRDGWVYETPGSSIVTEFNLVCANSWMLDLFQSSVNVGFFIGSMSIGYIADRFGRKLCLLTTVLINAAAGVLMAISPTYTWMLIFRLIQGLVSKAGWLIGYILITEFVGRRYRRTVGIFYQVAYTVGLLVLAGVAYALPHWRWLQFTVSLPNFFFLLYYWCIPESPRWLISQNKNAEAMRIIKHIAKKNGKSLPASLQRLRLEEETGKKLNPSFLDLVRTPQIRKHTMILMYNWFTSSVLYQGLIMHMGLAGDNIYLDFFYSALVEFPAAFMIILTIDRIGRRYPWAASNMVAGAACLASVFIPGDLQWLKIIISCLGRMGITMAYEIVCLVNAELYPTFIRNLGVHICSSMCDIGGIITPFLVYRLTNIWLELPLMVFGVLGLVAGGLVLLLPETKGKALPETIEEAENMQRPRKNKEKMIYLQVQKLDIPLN

CYP2C9 = CYP2C9 (Homo sapiens, UniProt P11712); assay: Reversible CYP inhibition in pooled human liver microsomes; assay type: in vitro ADME
Sequence of CYP2C9 (P11712 whole entry): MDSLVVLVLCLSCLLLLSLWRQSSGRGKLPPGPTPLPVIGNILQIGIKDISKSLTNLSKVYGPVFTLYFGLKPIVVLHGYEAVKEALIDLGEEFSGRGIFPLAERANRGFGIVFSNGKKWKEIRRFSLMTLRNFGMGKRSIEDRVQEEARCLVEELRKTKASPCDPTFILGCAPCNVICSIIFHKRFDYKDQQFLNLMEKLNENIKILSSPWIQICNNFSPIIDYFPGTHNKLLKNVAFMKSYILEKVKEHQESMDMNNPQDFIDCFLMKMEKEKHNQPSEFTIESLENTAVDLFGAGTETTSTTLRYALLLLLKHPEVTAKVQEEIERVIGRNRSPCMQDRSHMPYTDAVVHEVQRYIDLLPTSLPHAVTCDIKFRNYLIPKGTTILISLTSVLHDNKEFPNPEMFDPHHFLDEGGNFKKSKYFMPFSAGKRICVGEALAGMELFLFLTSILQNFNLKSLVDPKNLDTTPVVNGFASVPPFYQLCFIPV

In the case of `C#C[C@]1(CO)O[C@@H](n2cnc3c(N)nc(F)nc32)C[C@@H]1O` [Islatravir, 4′-Ethynyl-2-fluoro-2′-deoxyadenosine], the “mRNA Mean Fold Change ± SD CYP3A4” value (CYP3A4; 0.1 µM) is reported as 0.6 ± 0.2, the “mRNA Mean Fold Change ± SD CYP3A4” value (CYP3A4; 0.5 µM) is reported as 0.6 ± 0.2 and the “mRNA Mean Fold Change ± SD CYP3A4” value (CYP3A4; 1 µM) is reported as 0.6 ± 0.2. The “mRNA Mean Fold Change ± SD CYP3A4” value (CYP3A4; 5 µM) was 0.5 ± 0.1, the “mRNA Mean Fold Change ± SD CYP3A4” value (CYP3A4; 10 µM) was 0.6 ± 0.1 and the “mRNA Mean Fold Change ± SD CYP3A4” value (CYP3A4; 20 µM) was 0.1 ± 0.1. The “mRNA response relative to positive control” value (CYP3A4; CYP3A4, each tested concentration 0.1-20 µM) was “less than 20%”, the “enzyme activity, fold of solvent control” value (CYP3A4; CYP3A4 testosterone 6β-hydroxylation, all islatravir concentrations) was at most 1.1 fold and the fraction unbound at 24 h, 0.1 µM [1] was over 0.84. The “DDI Potential” value (CYP1A2 [2]; CYP1A2 reversible inhibition, FDA, EMA, PMDA guidance) was “Low risk”, the “Maximum Unbound Plasma Concentration (Imax,u) to Ki,u Ratio” value (CYP1A2 [2]; CYP1A2 reversible, 60 mg, Cmax 1.01 µM, fu,p 0.96, Ki,u = IC50/2) was under 0.019 µM and the IC50 (CYP1A2 [2]; reversible, CYP1A2 phenacetin O-deethylation, read-out: Islatravir IC50) was over 100 µM. For the same compound, the “mRNA Mean Fold Change ± SD CYP1A2” value (CYP1A2 [3]; 0.1 µM) was 0.4 ± 0.2, the “mRNA Mean Fold Change ± SD CYP1A2” value (CYP1A2 [3]; 0.5 µM) was 0.4 ± 0.2 and the “mRNA Mean Fold Change ± SD CYP1A2” value (CYP1A2 [3]; 1 µM) was 0.5 ± 0.3. The “mRNA Mean Fold Change ± SD CYP1A2” value (CYP1A2 [3]; 5 µM) was 0.4 ± 0.3, the “mRNA Mean Fold Change ± SD CYP1A2” value (CYP1A2 [3]; 10 µM) was 0.5 ± 0.4 and the “mRNA Mean Fold Change ± SD CYP1A2” value (CYP1A2 [3]; 20 µM) was 0.2 ± 0.2. For the same compound, the “mRNA response relative to positive control” value (CYP1A2 [3]; CYP1A2, each tested concentration 0.1-20 µM) was “less than 20%”, the “enzyme activity, fold of solvent control” value (CYP1A2 [3]; CYP1A2 phenacetin O-deethylation, all islatravir concentrations) was at most 1.1 fold and the IC50 (MATE1; MATE1, metformin uptake, read-out: Islatravir IC50) was over 75 µM. For the same compound, the “Maximum Unbound Plasma Concentration (Imax,u) to IC50 Ratio” value (MATE1; MATE1, 60 mg, Cmax 1.01 µM, fu,p 0.96) was under 0.013 µM, the “DDI Potential” value (MATE1; MATE1 inhibition, FDA, EMA, PMDA guidance) was “Low risk” and the “Islatravir Uptake Transporter-Expressing Cells” value (OCT2; CHO-K1-OCT2, 1 µM [3H]islatravir, 5 min, mean ± SD, n = 3) was 0.79 ± 0.14 pmole/10^6 Cells. For the same compound, the Fold-Difference (OCT2; OCT2, uptake into transporter-expressing cells to control cells, 5 min) was 0.81, the “Islatravir Uptake Control Cells” value (OCT2; OCT2 row, CHO-K1 control cells, 1 µM [3H]islatravir, 5 min, mean ± SD, n = 3) was 0.97 ± 0.01 pmole/10^6 Cells and the Conclusions (OCT2; OCT2 substrate assessment) was “Non-substrate”. For the same compound, the “DDI Potential” value (CYP2C9; CYP2C9 reversible inhibition, FDA, EMA, PMDA guidance) was “Low risk”, the “Maximum Unbound Plasma Concentration (Imax,u) to Ki,u Ratio” value (CYP2C9; CYP2C9 reversible, 60 mg, Cmax 1.01 µM, fu,p 0.96, Ki,u = IC50/2) was under 0.019 µM and the IC50 (CYP2C9; reversible, CYP2C9 diclofenac 4′-hydroxylation, read-out: Islatravir IC50) was over 100 µM.

— article PMC8402619 (Viruses, 2021)
